Results on nine molecules are retold here after patent publication US10066025B2, “Compositions and methods for detecting, treating and preventing diseases and disorders” (YALE UNIVERSITY, priority 2012, dated 2018).

Assay [1] has as its system renal ischemia/reperfusion (IR) injury. Kind of assay: Murine model of renal ischemia/reperfusion (IR) injury, plasma creatinine. In kind it is in vivo, mice. Conditions: for effect of ERK or PI3K/AKT inhibitor pretreatment on protective action of RP-H220 / protection against ischemic AKI (renal injury, plasma creatinine at 24 hr): WT mice; for effect of ERK or PI3K/AKT inhibitor pretreatment on protective action of RP-H220: 30 min renal IR; for severity of AKI, inhibitor alone without the peptides: ischemic WT mice; for protection against ischemic AKI (renal injury, plasma creatinine at 24 hr): renalase peptides 100 μg subcutaneous 10 to 30 min prior to 30 min renal ischemia; for renal protection (plasma creatinine): 5 mg/kg i.p., 30 min. renal IR. Here is the method:
Adult male renalase deficient (KO) mice (Wu et al., 2011, Kidney Int 79: 853-860) on a C57BL/6 background were subjected to renal ischemia/reperfusion (IR) as described (Kim et al., 2009, Kidney Int 75: 809-823; Kim et al., 2010, Am J Physiol Renal Physiol 299(2):F347-58). Renalase KO or wild type (WT) mice (C57BL/6 from Harlan Labs, Indianapolis, Ind.) were subjected to sham-operation or to 20 min. (moderate) or 30 min. (severe) renal ischemia and 24 hr. reperfusion. To test the renal protective effects of recombinant human renalase, mice were pretreated with saline (vehicle) or with recombinant renalase (0.5, 1.5 or 4.5 mg/kg, s.c.) 10 min. prior to 30 min. renal ischemia. It was also tested whether renalase treatment after completion of renal ischemia also provides renal protection. Separate cohorts of mice were treated with saline or with renalase (1.5 mg/kg, s.c.) 30 min. or 60 min. after reperfusion of the ischemic kidney. To test whether blocking alpha receptors would mimic the renal protective effects of human recombinant renalase administration, phentolamine (an alpha receptor antagonist, 5 mg/kg, i.p.) was given in some mice 15 min. before renal ischemia.
Plasma creatinine was measured as described with an enzymatic creatinine reagent kit according to the manufacturer's instructions (Thermo Fisher Scientific, Waltham, Mass.) (Slot, 1965, J Clin Lab Invest 17: 381-387).
After animal care and use committee approval, adult male C57BL/6 (Harlan Labs, Indianapolis, Ind.) were subjected to sham-operation or to 30 minutes of renal ischemia followed by 24 hrs of reperfusion as previously described (Lee et al., 2004, American journal of physiology. Renal physiology 286:F298-306). To test the renal protective effects of renalase peptides (RP-220, RP-H220 and RP-224), mice were pretreated with saline (vehicle) or with renalase peptides (100 μg subcutaneous) 10 to 30 minutes prior to renal ischemia.
Blood was collected from mice anesthetized with isoflurane via cardiac puncture into a heparinized syringe and was subsequently centrifuged to separate plasma. Samples were submitted to the Yale O'Brien Kidney Center for measurement of BUN and creatinine. Plasma creatinine was measured either by an enzymatic creatinine reagent kit according to the manufacturer's instructions (Thermo Fisher Scientific, Waltham, Mass.) or by HPLC. These methods of creatinine measurement largely eliminate the interferences from mouse plasma chromagens, known to occur with the Jaffe method.

The subject of the next assay is systemic blood pressure. Briefly: Blood pressure and heart rate in anesthetized mice. In kind it is in vivo. The conditions noted are these: for effect on systemic blood pressure: IV and subcutaneous administration, mice. Here is the method: As in 14A, except that RP-H220 is injected; no significant changes in blood pressure (FIG. 14B). Effect of a single intravenous injection of RP-220 (squares) and RP-H220 (diamonds) on heart rate in wild type mice (FIG. 14C).
FIG. 21 depicts the results of experiments examining the effect of RP-220 injection on blood pressure. A single subcutaneous injection of RP-220 (n=3) or buffer (n=2) in anesthetized wild type mice; BP pressure is recorded continuously; RP-220 is given at time 0; each data point represents the mean pressure; the standard error of the means are shown.
Systolic and diastolic pressure and heart rate were measured in anesthetized mice as previously described (Desir et al., 2012, J Am Heart Assoc. 1:e002634).

Assay [2] concerns PI3K/AKT and MAPK pathways. Briefly: AKT and MAPK signaling and Bcl-2 expression by western blot. In kind it is cell-based, human. The conditions noted are these: HK-2 cells in culture. On the procedure:
FIG. 12, comprising FIGS. 12A through 12E, is a set of images and graphs showing renalase upregulates Bcl-2, activates PI3K/AKT, ERK, p38, and inhibits JNK. Western blot analysis; P− indicates phosphorylated, activated proteins; signals normalized to GAPDH loading control, then changes in protein phosphorylation (increase=activation, decrease=inhibition) from time 0 are calculated. FIG. 12A: HK-2 and HUVEC cells incubated with renalase for 24 hrs; FIG. 12B: Western blot of time course of AKT and MAPK signaling by renalase, HK-2 cells incubated with renalase for indicated time; changes over baseline in 4c-d are significant (p<0.05); FIG. 12C: Activation of AKT(T308), AKT(5473) and ERK; FIG. 12D: Inhibition of JNK; FIG. 12E: Marked and sustained (60 min) upregulation of p38 by renalase in the presence of cisplatin, western blot for time course, REN=renalase, CP=cisplatin.
MAPK signaling by renalase and renalase peptides. Western blot analysis; ERK: Extracellular signal-Regulated Kinase 1 and 2; JNK: c-Jun N-terminal Kinases; AKT: protein kinase B; p-indicates phosphorylated, activated proteins; representative blot, n=3 (FIG. 20A). Renalase activates AKT (FIG. 20B). Western blot analysis; P− indicates phosphorylated, activated proteins Representative blot, n=3 (FIG. 20B, left panel). Signals normalized to GAPDH loading control; n=3, change over baseline statistically significant (P<0.05) from 1-60 min for ERK, p38 and AKT (T308), and at 30 min only for AKT (S473) (FIG. 20B, right panel). ERK or AKT inhibition abrogates protective effect of RP-H220 (FIG. 20C). Plasma creatinine levels from mice subjected to sham-surgery or to renal ischemia and reperfusion (IR); Renalase WT mice were subjected to sham-surgery or to 30 min renal IR. For mice subjected to renal IR, RP-H220 or vehicle (saline) was injected 10 min prior to renal ischemia. Some animals were pretreated with either the ERK inhibitor PD98059 or the PI3K/AKT inhibitor wortmanin. (N=6-8 per group). *: P<0.05 vs. vehicle-treated mice subjected to sham-surgery; #: P<0.05 vs. vehicle-treated WT mice subjected to renal IR (FIG. 20C).

The subject of assay [3] is HK-2 cells. Briefly: HK-2 cell cisplatin toxicity (WST-1 viability, western blot). In kind it is cell-based, human. Conditions: 20 μM cisplatin, 24 hrs. Here is the method:
Cultured HK-2 cells were incubated with 20 μM cisplatin for 24 hours with and without recombinant renalase. Renalase expression was examined by Western blot and cell viability (mitochondrial integrity) was determined spectrophotometrically using WST-1, a tetrazolium salt that is cleaved, by mitochondrial dehydrogenases of metabolically active and viable cells, to formazan (420-480 nm) (Boehringer Mannheim, Germany).
(§1) HK2 cells (human proximal tubular line) obtained from ATTC (Manassas, Va., USA) were cultured in DMEM/F12 supplemented with glutamine, 10% FBS and antibiotics, and were maintained at 37° C. in 5% CO2. Cells were exposed to cisplatin (20 μM) in the presence or absence of renalase for 24 hrs, and cell viability was assessed by the WST1 method (Roche Applied Science, Germany). Cells were then harvested in RIPA buffer (20 mM Tris-HCl pH 7.5, 150 mM NaCl, 1 mM Na2EDTA, 1 mM EGTA, 1% NP-40, 1% sodium deoxycholate, 2.5 mM sodium pyrophosphate, 1 mM β-glycerophosphate, 1 mM Na3VO4, 1 μg/ml leupeptin) supplemented with a protease and phosphatase inhibitor cocktail (Roche Applied Science, Germany). Proteins were separated by SDS-PAGE and Western blotting was carried out using the following antibodies: anti-renalase monoclonal (Desir et al., 2012, J Am Heart Assoc. 1:e002634; (Lee et al., 2013, J Am Soc Nephrol 24:445-455); anti caspase 3 (Cell Signaling Technology, MA, USA) and anti Bcl2 (Thermo Scientific, USA). Necrotic injury in HK-2 cells (ATCC, Manassas, Va.) was induced with exposure to 2 mM H2O2 for 2-8 hr and lactate dehydrogenase (LDH) released into cell culture media was measured as described using a commercial LDH assay kit (Promega, Madison, Wis.) (Lee and Emala, 2002, American journal of physiology. Renal physiology 282:F844-852).

The test system of assay [4] is HK-2 cells. Briefly: HK-2 cell necrosis induced with 2 mM H2O2 (LDH release). It counts as cell-based, human. Here is the method:
as §1

Regarding `COC[C@H]1OC(=O)c2coc3c2[C@@]1(C)C1=C(C3=O)[C@@H]2CCC(=O)[C@@]2(C)C[C@H]1OC(C)=O` [wortmanin, reference compound], in assay [1], the “effect of ERK or PI3K/AKT inhibitor pretreatment on protective action of RP-H220” value was “A similar result was obtained” and the “severity of AKI, inhibitor alone without the peptides” value is reported as “had no effect on the severity of AKI”.
For “RP 19: renalase peptide, SEQ ID NO: 8, LLRRQTSGPLYLAVWDKAED (listed as Homo sapiens)”, the “effect on systemic blood pressure” value in the assay with systemic blood pressure is on record as “no effect on BP”.
Same read-out and setting: the result for “RP A220: renalase peptide, SEQ ID NO: 5, IRFVSIDNAAANIESSEIG (listed as Homo sapiens)” reads “no effect on BP”.
On to “RP 220 scrambled: scrambled RP-220, SEQ ID NO: 6, CSKRIFKVISSIEDNNERG (listed as Homo sapiens) [reference compound]”, for which the “AKT and MAPK signaling (phosphorylation of ERK, p38, AKT)” value in assay [2] (listed as RP-Scr220) is “did not activate the AKT and MAPK signaling”; in assay [2] (listed as scrambled RP H220), “not”. The “effect on systemic blood pressure” value in the assay on systemic blood pressure is “no effect on BP”. The “effect on blood pressure and heart rate” value in the assay on systemic blood pressure (anesthetized WT mice) was “no effect on blood pressure and heart rate”.
Consider “RP 220: renalase peptide, amino acids 220-239, SEQ ID NO: 3, CIRFVSIDNKKRNIESSEIG (listed as Homo sapiens)”, for which the “cell survival / protection against cisplatin toxicity” value in the assay on HK-2 cells [3] is listed as “improved HK-2 cell survival”. The “necrosis induced with 2 mM H2O2” value in the assay on HK-2 cells [4] (at 2 and 4 hrs) was “significantly reduced necrosis”. Further, the “protection against ischemic AKI (renal injury, plasma creatinine at 24 hr)” value (“protection against ischemic AKI” for short) in assay [1] is given as “less effective”. The “protection against ischemic AKI” value in assay [1] (listed as RP-220) is listed as “reduced renal injury”. The “AKT and MAPK signaling (phosphorylation of ERK, p38, AKT)” value in assay [2] is “rapid and transient phosphorylation”. Further, the “effect on systemic blood pressure” value with systemic blood pressure is “marked and sustained effect on systemic blood pressure”. Besides, the “mean blood pressure decrease at 15 min” value in the assay with systemic blood pressure (WT mice, n=4, P=NS) is listed as 11.9±0.9 mmHg. Further, in the assay with systemic blood pressure (anesthetized WT mice), the “blood pressure after single intravenous injection” value is “profound fall in blood pressure”, the “blood pressure after subcutaneous administration” value is recorded as “decreased blood pressure”, the “delay in the onset of fall in blood pressure after subcutaneous administration” value was in the range of 30 to 60 min and the “duration of fall in blood pressure after intravenous injection” value is listed as “up to two hours”. For the same molecule, in the assay on systemic blood pressure (anesthetized WT mice), the heart rate increase was found to be 5% and the “onset of fall in blood pressure after intravenous injection” value is not above 30 s.
Take `COc1cccc(-c2cc(=O)c3ccccc3o2)c1N` [PD98059, 2′-amino 3′ methoxyflavone, reference compound]: in assay [1], the “effect of ERK or PI3K/AKT inhibitor pretreatment on protective action of RP-H220” value is reported as “completely abrogated” and the “severity of AKI, inhibitor alone without the peptides” value is “had no effect on the severity of AKI”.
Regarding `Cc1ccc(N(CC2=NCCN2)c2cccc(O)c2)cc1` [Phentolamine, reference compound], the “renal protection (plasma creatinine)” value is given as “protected renalase KO mice” in assay [1] (renalase KO mice) and “produced significant renal protection” in assay [1] (renalase WT mice).
As for “RP 128: renalase peptide, SEQ ID NO: 7, FRHRVTQINLRDDKWEVSKQ (listed as Homo sapiens)”, in the assay on systemic blood pressure, the “effect on systemic blood pressure” value was “no effect on BP”.
As for “RP 224: renalase peptide amino acid 224-233, SEQ ID NO: 2, CVSIDNKKRNI (listed as Homo sapiens)”, in the assay on HK-2 cells [3], the “cell survival / protection against cisplatin toxicity” value is recorded as “improved HK-2 cell survival”. In addition, the figures for the “protection against 2 mM H2O2 necrosis” value with HK-2 cells [4] (at 2 hrs) and in the assay on HK-2 cells [4] (at 4 hrs) were “protective at 2 hrs” and “not at 4 hrs”, respectively. For the same molecule, the figures for the “protection against ischemic AKI” value in assay [1] and in assay [1] (listed as RP-224) were “not protective” and “ineffective”, respectively. Moreover, in the assay with systemic blood pressure, the “effect on systemic blood pressure” value is recorded as “no effect on BP”. Further, the “effect on blood pressure and heart rate” value in the assay on systemic blood pressure (anesthetized WT mice) was “no effect on blood pressure and heart rate”.
